Data as given in patent publication US20150237838A1, “REGULATION OF INSECT POPULATIONS” (CALIFORNIA INSTITUTE OF TECHNOLOGY, priority 2014, published 2015).

Legend:
[1] = test system: Drosophila wild-type larvae; assay: Antibiotic toxicity test, wild-type larvae fed antibiotic-supplemented diet; assay type: in vivo, Drosophila melanogaster; details: for first instar death: larvae fed antibiotic-supplemented diet at around 1 mg/ml, n=10,000; for concentration at which antibiotic was highly toxic: wild-type larvae fed increasing amounts in diet
Method: As proof of principle, an embodiment of this system was developed for the fruit fly Drosophila melanogaster. As an initial test of antibiotic toxicity, Drosophila wild-type larvae were separately fed increasing amounts of either G418 or puromycin. Both antibiotics were highly toxic around 1 mg/ml such that when larvae were fed antibiotic-supplemented diet at this concentration, 100% first instar death was observed (n=10,000). Thus, these two antibiotics can be used as selection molecules in this system.

[2] = test system: Opie2-tra-neo expressing flies; assay: Sex selection of Opie2-tra-neo flies on G418 diet; assay type: in vivo, Drosophila melanogaster; details: diet with increasing concentrations of G418; at ~5 mg/ml; n=2,000
Description: (§1) The possibility of utilizing the endogenous sex determination machinery to promote sex-specific antibiotic resistance-based selection was next tested. Sex-specific introns dsx and tra were incorporated into the coding frames of the antibiotic resistance genes pac and neo, respectively, and two types of flies were generated, one type expressing Opie2-tra-neo and another type expressing Opie2-dsx-pac. The dsx intron can be excised by splicing only in males and the tra intron can be excised by splicing only in females. This precise sex-specific splicing of these two introns is dictated by the sex determination machinery of the fly. […] The Opie2-tra-neo expressing flies were fed diet containing increasing concentrations of G418 resulting in 100% female progeny at ˜5 mg/ml (n=2,000). The Opie2-dsx-pac expressing flies were fed diet containing increasing concentrations of puromycin resulting in 100% male progeny at ˜2 mg/ml (n=500).

[3] = test system: genetically engineered insects containing both antibiotic resistance markers; assay: Sex selection of flies carrying combined vector (Opie2-tra-neo and Opie2-dsx-pac); assay type: in vivo, Drosophila
Description: The expanded insect population containing both males and females was transferred to a diet supplemented with puromycin.

[4] = test system: Opie2-dsx-pac expressing flies; assay: Sex selection of Opie2-dsx-pac flies on puromycin diet; assay type: in vivo, Drosophila melanogaster; details: diet with increasing concentrations of puromycin; at ~2 mg/ml; n=500
Description: as §1

[5] = test system: flies expressing Opie2-tra-pac; assay: Sex selection of Opie2-tra-pac flies on puromycin diet; assay type: in vivo, Drosophila melanogaster; details: larvae fed diet with increasing concentrations of puromycin; n=500
Description: Thus, the sex specific introns can be interchangeably used with either antibiotic resistance genes to select for either males or females.

[6] = test system: transgenic flies expressing the pac gene; assay: Antibiotic diet fed to transgenic flies expressing pac gene; assay type: in vivo, Drosophila; details: diet with increasing concentrations of puromycin; pac under Opie2 promoter
Description: To determine if the toxicity of puromycin and neomycin could be negated, antibiotic resistance genes pac and neo were used. Two types of transgenic flies were generated each expressing one type of antibiotic resistance gene under the control of the promoter Opie2. One type of transgenic fly expressed the pac gene and the other expressed the neo gene. Transgenic flies were fed a diet supplemented with increasing concentrations of either puromycin or G418, respectively. […] Additionally, these transgenic flies were quite healthy with high fitness. Thus, the pac and neo genes could be used to counter the toxicity of […], respectively.

insects = details: tetracycline in diet; Zeh et al., 2012; cited from earlier work

| SMILES | first instar death [1] [%] | concentration at which antibiotic was highly toxic [1] | female progeny [2] [%] | females selected ([3]; diet supplemented with increasing concentrations of G418 (FIG. 3)) [%] | male progeny [4] [%] | female progeny [5] [%] | males selected ([3]; diet supplemented with increasing concentrations of puromycin (FIG. 2)) [%] | sex-selective killing of progeny ([3]; puromycin-supplemented diet, first instar larval stage) | toxicity of antibiotic in resistance-gene flies [6] | side effect on insects (fitness) (insects) |
| --- | --- | --- | --- | --- | --- | --- | --- | --- | --- | --- |
| CN[C@@H]1[C@@H](O)[C@@H](O[C@@H]2[C@@H](O)[C@H](O[C@H]3O[C@H]([C@@H](C)O)[C@@H](O)[C@H](O)[C@H]3N)[C@@H](N)C[C@H]2N)OC[C@]1(C)O [G418] | 100 | around 1 mg/ml | 100 | 100 | – | – | – | – | – | – |
| COc1ccc(C[C@H](N)C(=O)N[C@H]2[C@@H](O)[C@H](n3cnc4c(N(C)C)ncnc43)O[C@@H]2CO)cc1 [puromycin] | 100 | around 1 mg/ml | – | – | 100 | 100 | 100 | female progeny were selectively killed | negate the toxicity | – |
| CN(C)[C@@H]1C(O)=C(C(N)=O)C(=O)[C@@]2(O)C(O)=C3C(=O)c4c(O)cccc4[C@@](C)(O)[C@H]3C[C@@H]12 [tetracycline] | – | – | – | – | – | – | – | – | – | large fitness cost |
